The values that follow come from patent US5952321A, “Substituted azetidinones as anti-inflammatory and antidegenerative agents” (Merck & Co., Inc., priority 1996, dated 1999).

Counter-ions that a name gives are not always drawn. Like-named read-outs stand apart in the source and are kept apart here.

For this assay, the target named is T1, Human Polymorphonuclear Leukocyte Elastase (Homo sapiens, UniProt P08246).
T1 sequence (P08246 30-267): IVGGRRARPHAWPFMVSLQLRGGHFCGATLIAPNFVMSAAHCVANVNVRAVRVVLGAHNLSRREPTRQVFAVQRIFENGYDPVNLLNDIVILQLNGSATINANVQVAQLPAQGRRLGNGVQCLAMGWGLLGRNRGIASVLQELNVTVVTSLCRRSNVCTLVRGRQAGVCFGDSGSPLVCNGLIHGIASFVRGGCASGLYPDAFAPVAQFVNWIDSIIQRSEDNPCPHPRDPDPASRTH
In words: Inhibition of human polymorphonuclear leukocyte elastase via hydrolysis of Boc-AAPAN or Boc-AAPVN. The class given is biochemical. Conditions: second order rate constant for inactivation of the enzyme, read-out: Kobs /[I]. Here is the method:
Enzyme Assays for the Inhibition of Human Polymorphonuclear Leukocyte Elastase Via Hydrolysis of N-t-Boc-alanyl-alanyl-prolylalanine-p-nitroanilide (Boc-AAPAN) or […] (Boc-AAPVN) Reagent:
0.05M TES (N-tris[hydroxymethyl]methyl-2-amino-ethanesulfonic acid) Buffer, pH 7.5.
0.2 mM Boc-AAPAN or Boc-AAPVN.
To prepare substrate, the solid was first dissolved in 10.0 ml DMSO. Buffer at pH 7.5 was then added to a final volume of 100 ml.
Crude extract of human polymorphonuclear leukocytes (PMN) containing elastase activity.
Inhibitors (azetidinones) to be tested dissolved in DMSO just before use.
To 1.0 ml of 0.2 mM Boc-AAPAN in a cuvette, 0.01-0.1 ml of DMSO with or without inhibitor was added. After mixing, a measurement was taken at 410 mμ to detect any spontaneous hydrolysis due to presence of test compound. 0.05 Milliliters of PMN extract was then added and the ΔOD/min at 410 mμ was measured and recorded. Beckman model 35 spectrophotometer was used.
Results in Tables I to III were reported as ID50, effective dosage in micrograms per milliliter (μg/ml) for 50% inhibition of the enzyme activity 2 minutes after zero time.
Results were also expressed as Ki, the micromolar concentration of the inhibitor (μM) giving 50% of the control enzyme activity; or as ^k obs/I which is the second order rate constant in per mole per second for inactivation of the enzyme.
The elastase activity in the crude PMN extract may vary from one preparation to another. A control of each new batch is run, and the volume added in the assay procedure is adjusted according to activity.

`CCC[C@@H](NC(=O)N1C(=O)C(CC)(CC)[C@@H]1Oc1ccc(CNC(=O)CN(C)C)cc1)c1ccc(C)cc1` [R4=H; R5=COCH2 NMe2; R6=H, (4S)-3,3-Diethyl-1-[(R)-α-(n-propyl)-4-(methyl)benzyl-aminocarbonyl]-4-[(4-((N,N-dimethyl)aminomethylcarbonyl)aminomethyl)phenoxy]azetidin-2-one]: where the note is “pH 7.5, Table I”, the kinact/KI is 800000 M⁻¹ s⁻¹. For `CCC[C@@H](NC(=O)N1C(=O)C(CC)(CC)[C@@H]1Oc1ccc(CN(C)CCSCC)cc1)c1ccc(C)cc1` [R4=Me; R5=CH2 CH2 SEt; R6=H, (4S)-3,3-diethyl-1-[(R)-α-n-propyl-(4-methyl)benzylaminocarbonyl]-4-[(4-((2-thioethyl)ethyl)methylaminomethyl)phenoxy]azetidin-2-one], the kinact/KI (pH 7.5, Table I) stood at 1.05e+06 M⁻¹ s⁻¹.

Consider `CCC[C@@H](NC(=O)N1C(=O)C(CC)(CC)[C@@H]1Oc1ccc(CCCCN(C)C)cc1)c1ccc(C)cc1` [R4=Me; R5=Me; n=4], for which the kinact/KI (pH 7.5, Table II) was 525000 M⁻¹ s⁻¹. Take `CCC[C@@H](NC(=O)N1C(=O)C(CC)(CC)[C@@H]1Oc1ccc(CN2CC(C)NC(C)C2)cc1)c1ccc(C)cc1` (stereo partly drawn) [R4+R5=--CH2 CHMeNCHMeCH2 --; R6=H]: the kinact/KI (pH 7.5, Table I) was determined as 980000 M⁻¹ s⁻¹. Same read-out and setting: then `CCC[C@@H](NC(=O)N1C(=O)C(CC)(CC)[C@@H]1Oc1ccc(CN(C)CCOc2ccccc2)cc1)c1ccc(C)cc1` [R4=Me; R5=CH2 CH2 OPh; R6=H], with 750000 M⁻¹ s⁻¹; and `CCC[C@@H](NC(=O)N1C(=O)C(CC)(CC)[C@@H]1Oc1ccc(CN(CC)CCOCCOC)cc1)c1ccc(C)cc1` [R4=Et; R5=CH2 CH2 OCH2 CH2 OMe; R6=H], with 1.3e+06 M⁻¹ s⁻¹; and `CCC[C@@H](NC(=O)N1C(=O)C(CC)(CC)[C@@H]1Oc1ccc(CN(CCOC)C(C)C)cc1)c1ccc(C)cc1` [R4=i-Pr; R5=CH2 CH2 OMe; R6=H], with 500000 M⁻¹ s⁻¹. The same measure, in the same setting: then `CCC[C@@H](NC(=O)N1C(=O)C(CC)(CC)[C@@H]1Oc1ccc(C(C)N2CCOCC2)cc1)c1ccc(C)cc1` (stereo partly drawn) [R4+R5=--CH2 CH2 OCH2 CH2 --; R6=Me], with 460000 M⁻¹ s⁻¹. As to `CCC[C@@H](NC(=O)N1C(=O)C(CC)(CC)[C@@H]1Oc1ccc(CN(C)CCOC)cc1)c1ccc(OCC)cc1`, the kinact/KI (pH 7.5, Table III) was determined as 1.3e+06 M⁻¹ s⁻¹. `CCC[C@@H](NC(=O)N1C(=O)C(CC)(CC)[C@@H]1Oc1ccc(CN(C)CCOC(=O)N2CCOCC2)cc1)c1ccc(C)cc1`: the kinact/KI (pH 7.5, Table I) turned out to be 1.4e+06 M⁻¹ s⁻¹. Same read-out and setting: the same measure for `CCC[C@@H](NC(=O)N1C(=O)C(CC)(CC)[C@@H]1Oc1ccc(CN(C)CCOCC)cc1)c1ccc(C)cc1` [R4=Me; R5=CH2 CH2 OEt; R6=H, (4S)-3,3-Diethyl-1-[(R)-α-n-propyl-(4-methyl)benzylaminocarbonyl]-4-[(4-(2-ethoxyethyl)methylaminomethyl)phenoxy]azetidin-2-one]: 600000 M⁻¹ s⁻¹. `CCC[C@@H](NC(=O)N1C(=O)C(CC)(CC)[C@@H]1Oc1ccc(CCCCN(C)Cc2ccccc2)cc1)c1ccc(C)cc1` [R4=Me; R5=Bn; n=4]: where the note is “pH 7.5, Table II”, the kinact/KI amounted to 640000 M⁻¹ s⁻¹. For `CCC[C@@H](NC(=O)N1C(=O)C(CC)(CC)[C@@H]1Oc1ccc(CN(C)CCCOC(=O)N(C)C)cc1)c1ccc(C)cc1` [R4=Me; R5=CH2 CH2 CH2 OCONMe2; R6=H], the kinact/KI (pH 7.5, Table I) came out at 2.1e+06 M⁻¹ s⁻¹.

In the case of `CCCCN(C)C(=O)OCCN(C)Cc1ccc(O[C@@H]2N(C(=O)N[C@H](CCC)c3ccc(C)cc3)C(=O)C2(CC)CC)cc1` [R4=Me; R5=CH2 CH2 OCON(Me)n-Bu; R6=H], for the setting “pH 7.5, Table I”, the kinact/KI amounted to 1.3e+06 M⁻¹ s⁻¹. Still for that read-out and setting: then `CCC[C@@H](NC(=O)N1C(=O)C(CC)(CC)[C@@H]1Oc1ccc(CN(CCOC)CCOC)cc1)c1ccc(C)cc1` [R4=CH2 CH2 OMe; R5=CH2 CH2 OMe; R6=H], with 820000 M⁻¹ s⁻¹. Still for that read-out and setting: then `CCC[C@@H](NC(=O)N1C(=O)C(CC)(CC)[C@@H]1Oc1ccc(Cn2ccnc2C)cc1)c1ccc(C)cc1` [R4+R5=--CHCHNCMe--; R6=H], with 1.4e+06 M⁻¹ s⁻¹. Regarding `CCC[C@@H](NC(=O)N1C(=O)C(CC)(CC)[C@@H]1Oc1ccc(CN(C)C)cc1)c1ccc(C)cc1` [R4=Me; R5=Me; R6=H], the kinact/KI (pH 7.5, Table I) was 560000 M⁻¹ s⁻¹. On the same count and under the same terms, the same measure for `CCC[C@@H](NC(=O)N1C(=O)C(CC)(CC)[C@@H]1Oc1ccc(CN(C)CCS(=O)(=O)CC)cc1)c1ccc(C)cc1` [R4=Me; R5=CH2 CH2 SO2 Et; R6=H, (4S)-3,3-Diethyl-1-[(R)-α-n-propyl-(4-methyl)benzylaminocarbonyl]-4-[(4-((2-thioethyl)ethyl)methylaminomethyl)phenoxy]azetidin-2-one. S-dioxide.]: 1.5e+06 M⁻¹ s⁻¹. As to `CCC[C@@H](NC(=O)N1C(=O)C(CC)(CC)[C@@H]1Oc1ccc(CN(CCOC)CCOC)c(Cl)c1)c1ccc(C)cc1`, the kinact/KI (pH 7.5, Table III) turned out to be 1e+06 M⁻¹ s⁻¹. As to `CCC[C@@H](NC(=O)N1C(=O)C(CC)(CC)[C@@H]1Oc1ccc(CN2C(C)CCCC2C)cc1)c1ccc(C)cc1` (stereo partly drawn) [R4+R5=--CHMeCH2 CH2 CH2 CHMe--; R6=H], the kinact/KI (pH 7.5, Table I) came to 1.15e+06 M⁻¹ s⁻¹.

For `CCC[C@@H](NC(=O)N1C(=O)C(CC)(CC)[C@@H]1Oc1ccc(CNC(=O)Cc2ccncc2)cc1)c1ccc(C)cc1` [R4=H; R5=COCH2-4-pyridyl; R6=H, (4S)-3,3-Diethyl-1-[(R)-α-(n-propyl)-4-(methyl)benzylaminocarbonyl]-4-[(4-((4-pyridyl)methylcarbonyl)aminomethyl)phenoxy]azetidin-2-one], for the setting “pH 7.5, Table I”, the kinact/KI came out at 1.7e+06 M⁻¹ s⁻¹.

For `CCC[C@@H](NC(=O)N1C(=O)C(CC)(CC)[C@@H]1Oc1ccc(CN2CCN(C(C)=O)CC2)cc1)c1ccc(C)cc1` [R4+R5=--CH2 CH2 N(Ac)CH2 CH2 --; R6=H], for the setting “pH 7.5, Table I”, the kinact/KI is 950000 M⁻¹ s⁻¹.

Turning to `CCC[C@@H](NC(=O)N1C(=O)C(CC)(CC)[C@@H]1Oc1ccc(C(C)NCCOC)cc1)c1ccc(C)cc1` (stereo partly drawn) [R4=H; R5=CH2 CH2 OMe; R6=Me], the kinact/KI (pH 7.5, Table I) was 680000 M⁻¹ s⁻¹. `CCC[C@@H](NC(=O)N1C(=O)C(CC)(CC)[C@@H]1Oc1ccc(CCN(C)C)cc1)c1ccc(C)cc1` [R4=Me; R5=Me; n=2, (4S)-3,3-Diethyl-1-[(R)-α-n-propyl-(4-methyl)benzylaminocarbonyl]-4-[(4-(2-dimethylamino)ethyl)phenoxy]azetidin-2-one]: the kinact/KI (pH 7.5, Table II) is 1.13e+06 M⁻¹ s⁻¹. As to `CCC[C@@H](NC(=O)N1C(=O)C(CC)(CC)[C@@H]1Oc1ccc(CN(C)CCOC(=O)NC(C)C)cc1)c1ccc(C)cc1` [R4=Me; R5=CH2 CH2 OCONH(i-Pr); R6=H], the kinact/KI (pH 7.5, Table I) is 1.85e+06 M⁻¹ s⁻¹. For the compound `CCC[C@@H](NC(=O)N1C(=O)C(CC)(CC)[C@@H]1Oc1ccc(CN2CCC[C@@H]2CO)cc1)c1ccc(C)cc1`, the kinact/KI (pH 7.5, Table I) was determined as 725000 M⁻¹ s⁻¹. For `CCC[C@@H](NC(=O)N1C(=O)C(CC)(CC)[C@@H]1Oc1ccc(CN(C)CCOC(=O)N(CC)CC)cc1)c1ccc(C)cc1` [R4=Me; R5=CH2 CH2 OCONEt2; R6=H], the kinact/KI (pH 7.5, Table I) is 1.23e+06 M⁻¹ s⁻¹. The same measure, in the same setting: then `CCC[C@@H](NC(=O)N1C(=O)C(CC)(CC)[C@@H]1Oc1ccc(C(COC)N(C)CC)cc1)c1ccc(C)cc1` (mixture of isomers) [R4=Me; R5=Et; R6=CH2 OMe, 3,3-Diethyl-1-[(R)-α-(n-propyl)-4-(methyl)benzylaminocarbonyl]-4-(S)-[4-{1-(RS)-(N-ethyl-N-(methyl)amino)2-methoxyethyl}-phenoxy]azetidin-2-one], with 1e+06 M⁻¹ s⁻¹. Regarding `CCC[C@@H](NC(=O)N1C(=O)C(CC)(CC)[C@@H]1Oc1ccc(CN(CC)CCOC)cc1)c1ccc2c(c1)OCO2`, the kinact/KI (pH 7.5, Table III) came to 1.9e+06 M⁻¹ s⁻¹.

Regarding `CCC[C@@H](NC(=O)N1C(=O)C(CC)(CC)[C@@H]1Oc1ccc(CN(CC)CCOC)cc1)c1ccc2occc2c1`, under “pH 7.5, Table III”, the kinact/KI turned out to be 1.1e+06 M⁻¹ s⁻¹. For `CCC[C@@H](NC(=O)N1C(=O)C(CC)(CC)[C@@H]1Oc1ccc(CN(C)CCOC(=O)C(C)C)cc1)c1ccc(C)cc1` [R4=Me; R5=CH2 CH2 OCOCHMe2; R6=H], where the note is “pH 7.5, Table I”, the kinact/KI is 630000 M⁻¹ s⁻¹.

With `CCC[C@@H](NC(=O)N1C(=O)C(CC)(CC)[C@@H]1Oc1ccc(CCN(C)CCN(C)C)cc1)c1ccc(C)cc1` [R4=Me; R5=CH2 CH2 NMe2; n=2, (4S)-3,3-Diethyl-1-[(R)-α-n-propyl-(4-methyl)benzylaminocarbonyl]-4-[(4-(2-((2-dimethylamino)ethyl)methylamino)ethyl)phenoxy]azetidin-2-one], the kinact/KI (pH 7.5, Table II) stood at 1.2e+06 M⁻¹ s⁻¹. For `CCC[C@@H](NC(=O)N1C(=O)C(CC)(CC)[C@@H]1Oc1ccc(CN(C)CCC(=O)O)cc1)c1ccc(C)cc1` [R4=Me; R5=CH2 CH2 CO2 H--TFA; R6=H], the kinact/KI (pH 7.5, Table I) was found to be 440000 M⁻¹ s⁻¹. The same measure, in the same setting: then `CCC[C@@H](NC(=O)N1C(=O)C(CC)(CC)[C@@H]1Oc1ccc(C(C)N(C)CCOC(=O)N(C)C)cc1)c1ccc(C)cc1` (stereo partly drawn) [R4=Me; R5=CH2 CH2 OCONMe2; R6=Me], with 925000 M⁻¹ s⁻¹. Turning to `CCC[C@@H](NC(=O)N1C(=O)C(CC)(CC)[C@@H]1Oc1ccc(CN(CC)CCOC)cc1)c1ccc(OCC)cc1`, for the setting “pH 7.5, Table III”, the kinact/KI turned out to be 1.12e+06 M⁻¹ s⁻¹. For `CCC[C@@H](NC(=O)N1C(=O)C(CC)(CC)[C@@H]1Oc1ccc(CN2CCN(C(=O)c3ccccc3)CC2)cc1)c1ccc(C)cc1` [R4+R5=--CH2 CH2 N(Bz)CH2 CH2 --; R6=H], the kinact/KI (pH 7.5, Table I) was 1.7e+06 M⁻¹ s⁻¹.
